Test results taken from patent US9857359B2, “Methods for determining drug efficacy using cereblon-associated proteins” (CELGENE CORPORATION, priority 2012, dated 2018).

Key:
Aiolos = Aiolos expression in human whole blood by FACS assay; assay type: cell-based
Description: Pre-weighed test compound was dissolved in 100% DMSO to make 100 mM or 10 mM stock concentrations. The compound in 100% DMSO was diluted to 10 mM, 1 mM, 0.1 mM, 0.01 mM, 0.001 mM stock concentrations as appropriate. Compounds were directly added to heparinized human whole blood (1:1000 dilution) for final concentrations of 10 μM, 1 μM, or 0.1 μM as appropriate. Ten (10) ml of whole blood was transferred to a 50 mL conical tube and treated with test compound. The final DMSO concentration was 0.1%. The blood was incubated for 1.5 or 5 hours at 37° C., 5% CO2. After each time point, the blood was lysed/fixed, permeabilized, washed and stained with Aiolos as described below.
BD Lyse/Fix Buffer was diluted 5× with distilled (or deionized) water. The Lyse/Fix buffer was pre-warmed in a 37° C. water bath for 10 minutes before use. The cells were lyzed and fixed immediately by mixing 1 volume of whole blood with 20 volumes of 1× Lyse/Fix buffer (for the 1 mL of blood+compound, add 20 mL of 1× Lyse/Fix buffer) and mixed thoroughly by inverting the tube several times. The cell lyse/fix and blood mixture was incubated in a 37° C. water bath for 10 minutes. Cells were pelleted by centrifugation at 500×g for 5 minutes and removed the supernatant by aspiration. Cells were suspended with 5 mL of cold PBS, and then pelleted by centrifugation at 500×g for 5 minutes, and the supernatant was aspirated off. Two hundred (200) μL of PBS was added to cells. Cells were transferred to polystyrene U-bottom 96-well plates (BD, Cat. No. 353910) for use with the FACSCanto HTS. Cells were washed with 200 μL of cold PBS and spun at 500×g for 5 minutes, and the plate was flicked and gently dapped on a paper towel to remove excess buffer. The cells were resuspended and permeabilized by adding 200 μL of cold BD Perm/Wash Buffer I and incubated on ice for 30 minutes. The cells were pelleted by centrifugation at 500×g for 5 minutes and the buffer removed. The cells were washed once with 200 μL BD perm/wash buffer and repelleted, and the buffer was removed.
The cell pellet was resuspended in 40 μL of BD perm/wash buffer. Twenty (20) μL each of anti-CD3-PE, anti-CD20-APC, and anti-Aiolos Rabbit antibodies, or 20 μL of appropriate isotype controls, or 20 μL of 1:400 of normal Rabbit IgG (control for Aiolos) were added to the cells. The mixture was mixed thoroughly and incubated at room temperature for 45 minutes in the dark. The mixture was centrifuged and washed once with BD perm/wash buffer at 500×g for 5 minutes. The cell pellet was resuspended in 80 μL of BD perm/wash buffer, and 20 μL of secondary Goat Anti-Rabbit IgG AF488 antibody (at 1:400 dilution in Perm/Wash Buffer) was added, and the mixture was incubated at RT for 30 min in the dark. Secondary antibody was not added to the isotype controls. The mixture was washed once with 200 μL BD Stain Buffer and centrifuged at 500×g for 5 minutes, and the pelleted cells were resuspended in 200 μL of staining buffer. The cells were analyzed on the BD FACSCanto using the HTS platform. The cells were analyzed using the standard method. If the cells cannot be read right away, the plates were covered in foil to protect from light and stored at 4° C. for up to 2 days. Data analysis was carried out using FlowJo from Tree Star, Inc. to assess mean fluorescence intensity and percent inhibition of Aiolos in cell population.

Ikaros = Ikaros (Homo sapiens, UniProt Q13422); assay: Ikaros in siCRBN transfected primary CD3+ T cells; assay type: cell-based; set-up: endogenous in cells; host or cells: U266, DF15 (and other MM lines), primary CD3+ T cells, primary CD19+ B cells; details: siCRBN vs siControl, 6/24 hours
Ikaros, sequence (Q13422 whole entry): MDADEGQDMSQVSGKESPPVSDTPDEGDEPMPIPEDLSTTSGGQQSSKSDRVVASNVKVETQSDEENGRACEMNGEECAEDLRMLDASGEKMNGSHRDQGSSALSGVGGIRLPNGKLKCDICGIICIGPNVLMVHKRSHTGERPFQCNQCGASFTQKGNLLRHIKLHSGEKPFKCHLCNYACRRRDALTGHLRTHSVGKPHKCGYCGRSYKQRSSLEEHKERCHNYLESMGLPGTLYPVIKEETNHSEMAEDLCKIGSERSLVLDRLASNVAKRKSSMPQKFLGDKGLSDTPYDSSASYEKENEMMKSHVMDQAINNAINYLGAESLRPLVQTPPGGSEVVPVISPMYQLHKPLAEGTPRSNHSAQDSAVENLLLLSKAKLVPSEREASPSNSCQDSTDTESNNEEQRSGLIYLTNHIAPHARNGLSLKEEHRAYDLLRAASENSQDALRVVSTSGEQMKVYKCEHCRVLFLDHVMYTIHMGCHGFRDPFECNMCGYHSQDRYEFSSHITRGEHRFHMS
Description: Primary T cells were isolated from human leukocytes (Blood Center of New Jersey, East Orange, N.J.) by centrifugation through FICOLL® centrifugation medium following the ROSETETTESEP™ protocol (Stem Cell Technologies, Vancouver, Canada). Purified T cells were treated with 1 μg/mL PHA-L (Sigma, St. Louis, Mo.) at 37° C. for 24 hours then transfected with either siCRBN or siAiolos (Invitrogen) (200 nM siRNA/100 μL T buffer/8×10^6 cells/shot×5 shots) using NEON® Transfection System (Invitrogen, Grand Island, N.Y.) with program 2100 voltage+15 width+2 pulse. Low GC content siRNA (Invitrogen, Grand Island, N.Y.) was transfected as negative control. Transfected cells were pooled and cultured in OKT3 (3 μg/mL, eBioscience, San Diego, Calif.) coated 10 cm dish with 20 ml RPMI containing 10% FBS at 37° C. for 24 hours. Cells were collected for measuring CRBN or Aiolos knockdown efficiency by western blot (anti-Aiolos: Santa Cruz, sc-10198, lot.C-0212) and qRT-PCR (Applied Biosystem, gene expression CRBN Hs00372271_ml; IKZF3 ID#:Hs00232635_ml). […] Aiolos and Ikaros protein expression was determined by immunoblot analysis using antibodies against Aiolos (Santa Cruz, Dallas, Tex.) and Ikaros (Millipore, Billerica, Mass.). […] Supernatants were harvested and IL-2 protein detected by ELISA (Thermo Scientific, Lafayette, Colo.). […]

In the case of `Cc1nc2cccc(N)c2c(=O)n1C1CCC(=O)NC1=O` (stereo not shown) [Compound A, 3-(5-amino-2-methyl-4-oxo-4H-quinazolin-3-yl)-piperidine-2,6-dione], the “Aiolos expression in T and B cell populations” value (Aiolos; 1.5 hours after the treatment) is reported as “inhibitory effect was observed in both T and B cell populations”, the “Aiolos expression in lymphocytes” value (Aiolos; 1.5 hours after the treatment) is reported as “significantly inhibited the expression of Aiolos” and the “Aiolos expression in non-lymphocytes” value (Aiolos; 1.5 hours after the treatment) is reported as “no significant effect was observed”. The “Aiolos expression in lymphocytes” value (Aiolos; 5 hour after the treatment) was “the degree of inhibition was more significant than that observed at 1.5 hours”.
In the case of `O=C1CC[C@H](N2Cc3c(OCc4ccc(CN5CCOCC5)cc4)cccc3C2=O)C(=O)N1` [Compound B, 3-(4-((4-(morpholinomethyl)benzyl)oxy)-1-oxoisoindolin-2-yl)piperidine-2,6-dione], the “Aiolos expression in T and B cell populations” value (Aiolos; 1.5 hours after the treatment) is reported as “inhibitory effect was observed in both T and B cell populations”, the “Aiolos expression in lymphocytes” value (Aiolos; 1.5 hours after the treatment) is reported as “significantly inhibited the expression of Aiolos” and the “Aiolos expression in non-lymphocytes” value (Aiolos; 1.5 hours after the treatment) is reported as “no significant effect was observed”. For the same compound, the “Aiolos expression in lymphocytes” value (Aiolos; 5 hour after the treatment) was “the degree of inhibition was more significant than that observed at 1.5 hours”.
`Nc1cccc2c1CN(C1CCC(=O)NC1=O)C2=O` (stereo not shown) [lenalidomide] was tested, and the “Effect in reducing or inhibiting the expression of Ikaros where CRBN is knocked-down” value (Ikaros) was “significantly reduced as compared to the control cells with no CRBN knock-down”.
For `Nc1cccc2c1C(=O)N(C1CCC(=O)NC1=O)C2=O` (stereo not shown) [pomalidomide, reference compound], the “Effect in reducing or inhibiting the expression of Ikaros where CRBN is knocked-down” value (Ikaros) was “significantly reduced as compared to the control cells with no CRBN knock-down”.
